This note sets out measurements from patent publication US20200283381A1, “SOLID STATE FORMS OF ELAFIBRANOR” (TEVA PHARMACEUTICALS INTERNATIONAL GMBH, priority 2017, published 2020).

A short description of data set [1]: Thermodynamic (polymorphic) stability: conversion to other solid state forms, measured by XRPD. It is filed as physicochemical. The settings on record: after exposure to conditions of up to 25° C./100% RH for at least 1 month, as measured by XRPD; stable = less than 20% conversion. As for the experimental part:
The crystalline Elafibranor as described above in (a)-(f) may be anhydrous. The crystalline Elafibranor may be substantially free of other solid state forms of Elafibranor. […] In some embodiments, the conversion is 1%-20%, 1%-10% or 1%-5%.
Melting peak of crystalline form I of Elafibranor is in the range of about 154° C. and about 164° C., for example about 158° C. and about 160° C., preferably at about 159° C. as measured by DSC. […] Thermodynamic stability in relation to crystalline Elafibranor form I refers to less than 20%, less than 10%, less than 5%, less than 2%, less than 1%, or less than 0.5% conversion of crystalline Elafibranor form I to any other solid state form of Elafibranor after exposure of form I to conditions of up to 25° C./100% RH for at least 1 month, as measured by XRPD. In some embodiments, the conversion is 1%-20%, 1%-10% or 1%-5%.
Thermodynamic stability in relation to crystalline Elafibranor form II refers to less than 20%, 10%, 5%, 2%, 1%, or 0.5% conversion of crystalline Elafibranor form II to any other solid state form of Elafibranor after exposure of form II to conditions of up to 25° C./100% RH for at least 1 month, as measured by XRPD. In some embodiments, the conversion is 1%-20%, 1%-10% or 1%-5%.
Sample after being powdered in a mortar and pestle is applied directly on a silicon plate holder. […]

Data set [2] is described as follows: Hygroscopicity (water absorption, European Pharmacopoeia 7.0, chapter 01/2008:51100). It is filed as physicochemical. As to conditions: non-hygroscopic = less than 0.1% (w/w) of water absorption after 24 h exposure to 25° C./80% RH. As for the experimental part: As used herein the term non-hygroscopic in relation to crystalline Elafibranor refers to less than 0.1% (w/w) of water absorption after 24 h exposure to 25° C./80% RH, determined according to European Pharmacopoeia 7.0, chapter 01/2008:51100. Water can be for example atmospheric water.

As to `CSc1ccc(C(=O)/C=C/c2cc(C)c(OC(C)(C)C(=O)O)c(C)c2)cc1` [form I, 2-(2,6-dimethyl-4-{3-[4-(methylsulfanyl)phenyl]-3-oxoprop-1-en-1-yl}phenoxy)-2-methylpropanoic acid], the “thermodynamic stability (conversion to any other solid state form of Elafibranor)” value in data set [1] was “thermodynamically stable”. The hygroscopicity entry in data set [2] was “non-hygroscopic”.
